Experimental data: PubChem BioAssay AID1259411 (Chemical Carcinogenesis Research Information System (CCRIS), 2018)
The source made the active and inactive calls. How the calls were made is not given here.

Test system: rodent carcinogenicity bioassays, tumor incidence
Assay: CCRIS carcinogenicity studies
Details: Dose: 0, Dose: 0
Procedure, shortened: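 NCI-built, expert-reviewed records of carcinogenicity and related test outcomes (mutagenicity, tumor promotion/inhibition) compiled from published and report sources, historical span 1985-2011, not updated.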

SMILES: [N-]=[N+]=[N-]
- carcinogen call (Species: RAT, Strain/Sex: F344/FEMALE, Route: GAVAGE, 5, 10 MG/KG IN DISTILLED WATER 5 D/WK FOR 103 WK (STUDY DURATION: 2 YR), 5, 10 MG/KG IN DISTILLED WATER 5 D/WK FOR 103 WK (STUDY DURATION: 2 YR)): inactive; negative
- carcinogen call (Species: RAT, Strain/Sex: F344/MALE, Route: GAVAGE, 5, 10 MG/KG IN DISTILLED WATER 5 D/WK FOR 103 WK (STUDY DURATION: 2 YR), 5, 10 MG/KG IN DISTILLED WATER 5 D/WK FOR 103 WK (STUDY DURATION: 2 YR)): inactive; negative

SMILES: CCCCCCc1ccc(O)cc1O
- carcinogen call (Species: MOUSE, Strain/Sex: B6C3F1/FEMALE, Route: GAVAGE, 62.5, 125 MG/KG IN CORN OIL 5D/WK FOR 102 WK (STUDY DURATION: 104 WK), 62.5, 125 MG/KG IN CORN OIL 5D/WK FOR 102 WK (STUDY DURATION: 104 WK)): inactive; negative
- carcinogen call (Species: MOUSE, Strain/Sex: B6C3F1/MALE, Route: GAVAGE, 62.5, 125 MG/KG IN CORN OIL 5D/WK FOR 102 WK (STUDY DURATION: 104 WK), 62.5, 125 MG/KG IN CORN OIL 5D/WK FOR 102 WK (STUDY DURATION: 104 WK), Tumor Site: Type of Lesion: ADRENAL GLAND: PHEOCHROMOCYTOMA, HARDERIAN GLAND: ADENOMA OR CARCINOMA): equivocal
- carcinogen call (Species: RAT, Strain/Sex: F344/FEMALE, Route: GAVAGE, 62.5, 125 MG/KG IN CORN OIL 5D/WK FOR 103 WK (STUDY DURATION: 104 WK), 62.5, 125 MG/KG IN CORN OIL 5D/WK FOR 103 WK (STUDY DURATION: 104 WK)): inactive; negative
- carcinogen call (Species: RAT, Strain/Sex: F344/MALE, Route: GAVAGE, 62.5, 125 MG/KG IN CORN OIL 5D/WK FOR 103 WK (STUDY DURATION: 104 WK), 62.5, 125 MG/KG IN CORN OIL 5D/WK FOR 103 WK (STUDY DURATION: 104 WK)): inactive; negative

SMILES: CC1(C)CN=C(NN=C(/C=C/c2ccc(C(F)(F)F)cc2)/C=C/c2ccc(C(F)(F)F)cc2)NC1
- carcinogen call (Species: Mouse, Strain/Sex: CD-1/Female (?/Group), Route: Oral, 25, 50, 100, 200 ppm of 92% hydramethylnon in diet for 18 mo, study duration 18 mo, 25, 50, 100, 200 ppm of 92% hydramethylnon in diet for 18 mo, study duration 18 mo): inactive; negative
- carcinogen call (Species: Mouse, Strain/Sex: CD-1/Male (?/Group), Route: Oral, 25, 50, 100, 200 ppm of 92% hydramethylnon in diet for 18 mo, study duration 18 mo, 25, 50, 100, 200 ppm of 92% hydramethylnon in diet for 18 mo, study duration 18 mo): inactive; negative
- carcinogen call (Species: Rat, Strain/Sex: CD/Female (50/Group), Route: Oral, 25, 50, 100, 200 ppm in diet for 2 yr, study duration 2 yr, 25, 50, 100, 200 ppm in diet for 2 yr, study duration 2 yr): inactive; negative
- carcinogen call (Species: Rat, Strain/Sex: CD/Male (50/Group), Route: Oral, 25, 50, 100, 200 ppm in diet for 2 yr, study duration 2 yr, 25, 50, 100, 200 ppm in diet for 2 yr, study duration 2 yr): inactive; negative

SMILES: CC(=O)N(C)C
- carcinogen call (Species: MOUSE, Strain/Sex: CRL:CD-1 (ICR)BR/FEMALE, Route: INHALATION, 25, 100, 350 PPM 6 HR/D 5 D/WK FOR 18 MO (STUDY DURATION: 18 MO), 25, 100, 350 PPM 6 HR/D 5 D/WK FOR 18 MO (STUDY DURATION: 18 MO)): inactive; negative
- carcinogen call (Species: MOUSE, Strain/Sex: CRL:CD-1 (ICR)BR/MALE, Route: INHALATION, 25, 100, 350 PPM 6 HR/D 5 D/WK FOR 18 MO (STUDY DURATION: 18 MO), 25, 100, 350 PPM 6 HR/D 5 D/WK FOR 18 MO (STUDY DURATION: 18 MO)): inactive; negative
- carcinogen call (Species: RAT, Strain/Sex: CRL:CD BR/FEMALE, Route: INHALATION, 25, 100, 350 PPM 6 HR/D 5 D/WK FOR 2 YR (STUDY DURATION: 2 YR), 25, 100, 350 PPM 6 HR/D 5 D/WK FOR 2 YR (STUDY DURATION: 2 YR)): inactive; negative
- carcinogen call (Species: RAT, Strain/Sex: CRL:CD BR/MALE, Route: INHALATION, 25, 100, 350 PPM 6 HR/D 5 D/WK FOR 2 YR (STUDY DURATION: 2 YR), 25, 100, 350 PPM 6 HR/D 5 D/WK FOR 2 YR (STUDY DURATION: 2 YR)): inactive; negative

SMILES: O=S(=O)(O)c1ccc(N=Nc2c(O)ccc3cc(S(=O)(=O)O)ccc23)cc1
- carcinogen call (Species: MOUSE, Strain/Sex: B6C3F1/FEMALE, Route: ORAL, 12500, 25000 PPM IN DIET, 12500, 25000 PPM IN DIET): inactive; negative
- carcinogen call (Species: MOUSE, Strain/Sex: B6C3F1/MALE, Route: ORAL, 12500, 25000 PPM IN DIET, 12500, 25000 PPM IN DIET): inactive; negative
- carcinogen call (Species: MOUSE, Strain/Sex: SWISS-WEBSTER/FEMALE, Route: DERMAL, 1% IN 0.1 ML DISTILLED WATER 1/WK FOR 19.5 MO (STUDY DURATION: 19.5 MO)): inactive; negative
- carcinogen call (Species: MOUSE, Strain/Sex: SWISS-WEBSTER/MALE, Route: DERMAL, 1% IN 0.1 ML DISTILLED WATER 1/WK FOR 19.5 MO (STUDY DURATION: 19.5 MO)): inactive; negative
- carcinogen call (Species: RAT, Strain/Sex: F344/FEMALE, Route: ORAL, 12500, 25000 PPM IN DIET, 12500, 25000 PPM IN DIET): inactive; negative
- carcinogen call (Species: RAT, Strain/Sex: F344/MALE, Route: ORAL, 12500, 25000 PPM IN DIET, 12500, 25000 PPM IN DIET): inactive; negative

SMILES: c1ccc2c(c1)ccc1cc3ccc4c(c3cc12)CCCC4
- carcinogen call (Species: MOUSE, Strain/Sex: SWISS/FEMALE, Route: DERMAL, 37 UG IN ACETONE (0.2%) 2/WK FOR 70 WK FOR A TOTAL DOSE OF 0, 5.2 MG (STUDY DURATION: 100 WK), 37 UG IN ACETONE (0.2%) 2/WK FOR 70 WK FOR A TOTAL DOSE OF 0, 5.2 MG (STUDY DURATION: 100 WK), Tumor Site: Type of Lesion: SKIN: CARCINOMA, SKIN: PAPILLOMA): active; positive

SMILES: CC(=O)Nc1cc(NS(=O)(=O)C(F)(F)F)c(C)cc1C
- carcinogen call (Species: Mouse, Strain/Sex: Strain not specified by Department of Pesticide Regulation/Female (60/Group), Route: Oral, 600, 1800, 6000 ppm of 93% mefluidide in diet for 18-19 mo, study duration 19 mo, 600, 1800, 6000 ppm of 93% mefluidide in diet for 18-19 mo, study duration 19 mo): inactive; negative
- carcinogen call (Species: Mouse, Strain/Sex: Strain not specified by Department of Pesticide Regulation/Male (60/Group), Route: Oral, 600, 1800, 6000 ppm of 93% mefluidide in diet for 18-19 mo, study duration 19 mo, 600, 1800, 6000 ppm of 93% mefluidide in diet for 18-19 mo, study duration 19 mo): inactive; negative

SMILES: Nc1ccc(Sc2ccc(N)cc2)cc1
- carcinogen call (Species: MOUSE, Strain/Sex: B6C3F1/FEMALE, Route: ORAL, 2500, 5000 PPM IN DIET, 2500, 5000 PPM IN DIET, Tumor Site: Type of Lesion: LIVER: HEPATOCELLULAR CARCINOMA, THYROID GLAND: FOLLICULAR CELL ADENOMA OR CARCINOMA): active; positive
- carcinogen call (Species: MOUSE, Strain/Sex: B6C3F1/MALE, Route: ORAL, 2500, 5000 PPM IN DIET, 2500, 5000 PPM IN DIET, Tumor Site: Type of Lesion: LIVER: HEPATOCELLULAR ADENOMA OR CARCINOMA, THYROID GLAND: FOLLICULAR CELL ADENOMA OR CARCINOMA): active; positive
- carcinogen call (Species: RAT, Strain/Sex: F344/FEMALE, Route: ORAL, 1500, 3000 PPM IN DIET, 1500, 3000 PPM IN DIET, Tumor Site: Type of Lesion: THYROID GLAND: FOLLICULAR CELL CARCINOMA, UTERUS: ADENOCARCINOMA, NOS): active; positive
- carcinogen call (Species: RAT, Strain/Sex: F344/MALE, Route: ORAL, 1500, 3000 PPM IN DIET (68-72 WEEKS), 1500, 3000 PPM IN DIET (68-72 WEEKS), Tumor Site: Type of Lesion: LIVER: HEPATOCELLULAR ADENOMA OR CARCINOMA, COLON: ADENOCARCINOMA, NOS, THYROID GLAND: FOLLICULAR CELL ADENOMA OR CARCIN, Tumor Site: Type of Lesion: LIVER: HEPATOCELLULAR ADENOMA OR CARCINOMA, COLON: ADENOCARCINOMA, NOS, THYROID GLAND: FOLLICULAR CELL ADENOMA OR CARCIN): active; positive
